Ends that are not written are not given here. Peptide text beside a SMILES is read from it.
Legend:
[1] = MTT cytotoxicity on normal human skin keratinocytes; settings: normal human epidermal keratinocytes
Experimental: (§1) To make sure the peptides are not cytotoxic to the cells, normal human epidermal keratinocytes were seeded to a 96-well plate. The plate was incubated at 37° C. in the presence of 5% CO2 to allow the cells to grow to >95% confluent. Peptides are diluted into stock solutions at concentrations of 50, 100, 200, and 500 μg/ml. The cell culture media are replaced with fresh media containing peptides at various concentrations then incubated at 37° C. and 5% CO2 for 24 hr. At the end of treatment the cell viability was measured using MTT assay kit purchased from ATCC (Manassas Va.).

in vitro = settings: human, normal human epidermal keratinocytes
Experimental: as §1

[2] = test system: wound repair in a murine model; settings: cited from earlier work

For `CC[C@H](C)[C@H](NC(=O)[C@@H](N)CCCCN)C(=O)N[C@@H](CCC(=O)O)C(=O)N[C@@H](CCCCN)C(=O)O` [HB2232, KIEK] (H-KIEK-OH), the CC50 at 24 h [1] was > 500 µg/mL.
For `CSCC[C@H](NC(=O)[C@H](CCCCN)NC(=O)[C@@H](N)CCC(=O)O)C(=O)NCC(=O)O` [HB2234, EKMG] (H-EKMG-OH), the CC50 at 24 h [1] was > 500 µg/mL.
With `CSCC[C@H](N)C(=O)NCC(=O)N[C@@H](CCCNC(=N)N)C(=O)N[C@@H](CC(N)=O)C(=O)O` [HB2235, MGRN] (H-MGRN-OH) the CC50 at 24 h [1] was > 500 µg/mL.
With `CSCC[C@H](NC(=O)[C@@H](N)CCCCN)C(=O)NCC(=O)O` [HB2268, KMG] (H-Lys-Met-Gly-OH) the CC50 at 24 h (in vitro) was > 500 µg/mL.
In the case of `N=C(N)NCCC[C@H](NC(=O)CN)C(=O)N[C@@H](CC(N)=O)C(=O)O` [HB2269, GRN] (H-Gly-Arg-Asn-OH), the CC50 at 24 h [1] was > 500 µg/mL.
For EKMGR [HB2263, EKMGR], the CC50 at 24 h [1] was > 500 µg/mL.
With EKMGRN [HB2265, EKMGRN] the CC50 at 24 h [1] was > 500 µg/mL.
In the case of GRNIRN [HB1062, GRNIRN], the CC50 at 24 h [1] was > 500 µg/mL.
In the case of KMGRN [HB2262, KMGRN], the CC50 at 24 h [1] was > 500 µg/mL.
For “MPKEKVFLKIEKMGRNIRN (Peptide HB107) [non-antimicrobial host defense peptide derived from cecropin B]”, the “Benefit in wound repair” value ([2]; murine model, compared with growth factor rhPDGF) is given as “indistinguishable from the wound treated with growth factor rhPDGF” and the “Epidermal hyperplasia (histological analysis of treated wounds)” value ([2]; murine wounds) is given as “increased”.

Source: patent publication US9487558B2, “Short bio-active peptides for promoting wound healing” (HELIX BIOMEDIX, INC., priority 2013, dated 2016)
